Experimental data taken from patent US12351580B2, “NLRP3 modulators” (Innate Tumor Immunity, Inc., priority 2017, dated 2025).

Key:
[1] = target: T1, TLR7 (Homo sapiens, UniProt Q9NYK1); assay: In vitro human TLR7 binding reporter assay (HEK-Blue, NF-kB/AP1-inducible SEAP); type: cell-based
T1 construct: host or cells: HEK-Blue cells (human HEK) co-expressing TLR7 and an NF-kB/AP1-inducible SEAP reporter
T1 sequence (Q9NYK1 27-1049): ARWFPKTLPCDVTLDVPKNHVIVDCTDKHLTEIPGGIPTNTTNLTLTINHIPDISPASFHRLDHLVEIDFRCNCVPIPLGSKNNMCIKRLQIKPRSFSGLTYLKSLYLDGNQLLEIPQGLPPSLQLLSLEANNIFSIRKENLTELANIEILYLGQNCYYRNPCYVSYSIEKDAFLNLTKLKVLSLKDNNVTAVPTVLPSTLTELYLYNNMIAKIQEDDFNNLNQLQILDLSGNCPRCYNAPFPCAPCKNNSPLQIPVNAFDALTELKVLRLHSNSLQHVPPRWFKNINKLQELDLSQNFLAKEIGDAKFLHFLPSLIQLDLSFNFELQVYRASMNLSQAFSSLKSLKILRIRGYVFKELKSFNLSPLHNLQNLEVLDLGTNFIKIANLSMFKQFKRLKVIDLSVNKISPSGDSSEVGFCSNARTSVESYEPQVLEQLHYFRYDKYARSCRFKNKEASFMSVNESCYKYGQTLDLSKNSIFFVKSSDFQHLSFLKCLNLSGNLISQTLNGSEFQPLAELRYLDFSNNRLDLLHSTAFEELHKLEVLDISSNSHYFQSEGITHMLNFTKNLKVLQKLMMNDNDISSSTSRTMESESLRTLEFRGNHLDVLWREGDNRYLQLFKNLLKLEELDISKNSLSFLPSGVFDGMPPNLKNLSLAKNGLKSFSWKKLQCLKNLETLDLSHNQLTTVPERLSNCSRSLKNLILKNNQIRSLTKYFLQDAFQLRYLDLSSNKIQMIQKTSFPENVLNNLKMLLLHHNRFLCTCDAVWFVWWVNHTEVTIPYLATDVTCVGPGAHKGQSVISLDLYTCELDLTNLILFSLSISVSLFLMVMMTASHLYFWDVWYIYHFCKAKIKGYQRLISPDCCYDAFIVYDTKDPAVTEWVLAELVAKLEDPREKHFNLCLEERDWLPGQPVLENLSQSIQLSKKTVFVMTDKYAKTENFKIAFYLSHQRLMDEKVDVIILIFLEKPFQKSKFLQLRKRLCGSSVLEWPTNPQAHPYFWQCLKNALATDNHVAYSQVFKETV
Method in brief: (§1)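 Reporter cells are plated at 15,000 per well and rested 24 h. Next day, test compounds or DMSO are dispensed, followed by 18 h incubation at 37 °C, 5% CO2.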

[2] = target: T2, TLR8 (Homo sapiens, UniProt Q9NR97); assay: In vitro human TLR8 binding reporter assay (HEK-Blue, NF-kB/AP1-inducible SEAP); type: cell-based
T2 construct: host or cells: HEK-Blue cells (human HEK) co-expressing TLR8 and an NF-kB/AP1-inducible SEAP reporter
T2 sequence (Q9NR97 27-1041): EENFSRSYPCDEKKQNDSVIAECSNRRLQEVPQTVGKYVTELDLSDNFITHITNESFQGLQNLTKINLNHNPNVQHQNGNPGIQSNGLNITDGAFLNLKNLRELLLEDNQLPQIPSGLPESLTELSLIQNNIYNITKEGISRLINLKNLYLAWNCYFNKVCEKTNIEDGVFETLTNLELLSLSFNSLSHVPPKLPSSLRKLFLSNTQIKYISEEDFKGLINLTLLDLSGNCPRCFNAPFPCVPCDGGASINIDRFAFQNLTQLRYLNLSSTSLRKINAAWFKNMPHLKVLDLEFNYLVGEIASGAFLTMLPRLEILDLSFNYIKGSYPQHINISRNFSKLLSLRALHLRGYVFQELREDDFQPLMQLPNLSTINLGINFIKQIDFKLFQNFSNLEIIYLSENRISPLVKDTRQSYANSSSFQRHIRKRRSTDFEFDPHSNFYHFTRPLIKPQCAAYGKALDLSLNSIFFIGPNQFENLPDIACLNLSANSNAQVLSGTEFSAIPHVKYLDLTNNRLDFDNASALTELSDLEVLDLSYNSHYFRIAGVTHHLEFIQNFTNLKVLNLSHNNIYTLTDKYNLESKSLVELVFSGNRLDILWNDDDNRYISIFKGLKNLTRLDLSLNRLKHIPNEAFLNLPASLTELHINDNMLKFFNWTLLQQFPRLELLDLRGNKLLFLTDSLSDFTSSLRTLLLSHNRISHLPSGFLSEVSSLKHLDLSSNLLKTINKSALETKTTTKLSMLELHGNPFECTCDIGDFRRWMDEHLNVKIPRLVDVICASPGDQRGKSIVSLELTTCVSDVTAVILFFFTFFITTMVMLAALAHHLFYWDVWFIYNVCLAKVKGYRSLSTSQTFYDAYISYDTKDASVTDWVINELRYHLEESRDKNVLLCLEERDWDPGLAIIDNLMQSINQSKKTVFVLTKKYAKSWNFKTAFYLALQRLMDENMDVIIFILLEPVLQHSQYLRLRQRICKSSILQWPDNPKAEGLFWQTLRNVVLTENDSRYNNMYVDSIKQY
Method in brief: as §1

Structure (SMILES)	EC50 ([1]; numeric bounds) [µM]	EC50 ([2]; numeric bounds) [µM]	EC50 ([1]; activity range symbols) [µM]	EC50 ([2]; activity range symbols) [µM]
CCN(Cc1nc2c(N)nc3cc(-c4ccc(C)cc4)ccc3c2[nH]1)C(C)=O [Compound 422]	> 10	> 10		
N#Cc1ccc(-c2ccc3c(c2)nc(N)c2nc(CN4CCCC4=O)[nH]c23)cc1 [Compound 434]	> 30	> 30		
CCOC(=O)N(CC)Cc1nc2c(N)nc3cc(-c4cc[nH]n4)ccc3c2[nH]1 [Compound 436, Ethyl N-{[4-amino-7-(1H-pyrazol-3-yl)-1H-imidazo[4,5-c]quinolin-2-yl]methyl}-N-ethylcarbamate]	> 50	> 50		
CCN(Cc1nc2c(N)nc3cc(-c4cc[nH]n4)ccc3c2[nH]1)C(=O)CCCc1ccccc1 [Compound 444, N-{[4-amino-7-(1H-pyrazol-3-yl)-1H-imidazo[4,5-c]quinolin-2-yl]methyl}-N-ethyl-4-phenylbutanamide]			> 100	1 to 20
CCN(Cc1nc2c(N)nc3cc(-c4cc[nH]n4)ccc3c2[nH]1)C(=O)CCC(C)C [Compound 445, N-{[4-amino-7-(1H-pyrazol-3-yl)-1H-imidazo[4,5-c]quinolin-2-yl]methyl}-N-ethyl-4-methylpentanamide]		> 62	> 100	
CCN(Cc1nc2c(N)nc3cc(-c4cc[nH]n4)ccc3c2[nH]1)C(=O)c1cccn1C [Compound 446, N-{[4-amino-7-(1H-pyrazol-3-yl)-1H-imidazo[4,5-c]quinolin-2-yl]methyl}-N-ethyl-1-methyl-1H-pyrrole-2-carboxamide]			> 100	> 100
CCN(Cc1nc2c(N)nc3cc(-c4cc[nH]n4)ccc3c2[nH]1)C(=O)CCc1ccccc1 [Compound 447, N-{[4-amino-7-(1H-pyrazol-3-yl)-1H-imidazo[4,5-c]quinolin-2-yl]methyl}-N-ethyl-3-phenylpropanamide]			> 100	1 to 20
CCN(Cc1nc2c(N)nc3cc(-c4cc[nH]n4)ccc3c2[nH]1)C(=O)c1ccccc1Cl [Compound 449, N-{[4-amino-7-(1H-pyrazol-3-yl)-1H-imidazo[4,5-c]quinolin-2-yl]methyl}-2-chloro-N-ethylbenzamide]			> 100	20 to 100
CCN(Cc1nc2c(N)nc3cc(-c4cc[nH]n4)ccc3c2[nH]1)C(=O)c1ccncc1 [Compound 450, N-{[4-amino-7-(1H-pyrazol-3-yl)-1H-imidazo[4,5-c]quinolin-2-yl]methyl}-N-ethylpyridine-4-carboxamide]			> 100	> 100
CCN(Cc1nc2c(N)nc3cc(-c4cc[nH]n4)ccc3c2[nH]1)C(=O)c1cn(C)c2ccccc12 [Compound 451, N-{[4-amino-7-(1H-pyrazol-3-yl)-1H-imidazo[4,5-c]quinolin-2-yl]methyl}-N-ethyl-1-methyl-1H-indole-3-carboxamide]			> 100	20 to 100
CCN(Cc1nc2c(N)nc3cc(-c4cc[nH]n4)ccc3c2[nH]1)C(=O)c1ccc(Cl)cc1 [Compound 452, N-{[4-amino-7-(1H-pyrazol-3-yl)-1H-imidazo[4,5-c]quinolin-2-yl]methyl}-4-chloro-N-ethylbenzamide]		> 62	> 100	

Continued, values first:

EC50 ([1]; numeric bounds) [µM]	EC50 ([2]; numeric bounds) [µM]	EC50 ([1]; activity range symbols) [µM]	EC50 ([2]; activity range symbols) [µM]	Structure (SMILES)
		> 100	> 100	Nc1nc2cc(-n3cccn3)ccc2c2[nH]c(CN3CCCCC3=O)nc12 [Compound 423]
		> 100	> 100	CCN(Cc1nc2c(N)nc3cc(-c4cncc(F)c4)ccc3c2[nH]1)C(C)=O [Compound 427]
	> 10	> 100		CCN(Cc1nc2c(N)nc3cc(Br)ccc3c2n1CC(C)C)C(C)=O [Compound 430]
	> 10	> 100		CCN(Cc1nc2c(N)nc3cc(Br)ccc3c2n1CCCOC)C(C)=O [Compound 431]
		> 100	> 100	CCN(Cc1nc2c(N)nc3cc(-c4cc[nH]n4)ccc3c2[nH]1)C(=O)Cc1cccc(C)c1 [Compound 437, N-{[4-amino-7-(1H-pyrazol-3-yl)-1H-imidazo[4,5-c]quinolin-2-yl]methyl}-N-ethyl-2-(3-methylphenyl)acetamide]
		> 100	> 100	CCN(Cc1nc2c(N)nc3cc(-c4cc[nH]n4)ccc3c2[nH]1)C(=O)c1cccnc1 [Compound 438, N-{[4-amino-7-(1H-pyrazol-3-yl)-1H-imidazo[4,5-c]quinolin-2-yl]methyl}-N-ethylpyridine-3-carboxamide]
		> 100	> 100	CCN(Cc1nc2c(N)nc3cc(-c4cc[nH]n4)ccc3c2[nH]1)C(=O)c1ccccn1 [Compound 439, N-{[4-amino-7-(1H-pyrazol-3-yl)-1H-imidazo[4,5-c]quinolin-2-yl]methyl}-N-ethylpyridine-2-carboxamide]
		> 100	> 100	CCN(Cc1nc2c(N)nc3cc(-c4cc[nH]n4)ccc3c2[nH]1)C(=O)CC(C)(C)O [Compound 440, N-{[4-amino-7-(1H-pyrazol-3-yl)-1H-imidazo[4,5-c]quinolin-2-yl]methyl}-N-ethyl-3-hydroxy-3-methylbutanamide]
	> 62	> 100		CCN(Cc1nc2c(N)nc3cc(-c4cc[nH]n4)ccc3c2[nH]1)C(=O)c1ccc(OC)cc1 [Compound 441, N-{[4-amino-7-(1H-pyrazol-3-yl)-1H-imidazo[4,5-c]quinolin-2-yl]methyl}-N-ethyl-4-methoxybenzamide]
		> 100	> 100	CCN(Cc1nc2c(N)nc3cc(-c4cc[nH]n4)ccc3c2[nH]1)C(=O)c1cnccn1 [Compound 442, N-{[4-amino-7-(1H-pyrazol-3-yl)-1H-imidazo[4,5-c]quinolin-2-yl]methyl}-N-ethylpyrazine-2-carboxamide]
	> 62	> 100		CCN(Cc1nc2c(N)nc3cc(-c4cc[nH]n4)ccc3c2[nH]1)C(=O)Cc1ccccc1 [Compound 443, N-{[4-amino-7-(1H-pyrazol-3-yl)-1H-imidazo[4,5-c]quinolin-2-yl]methyl}-N-ethyl-2-phenylacetamide]
